Source: patent US20230277534A1 (Plexxikon Inc., priority 2011, published 2023)

Legend:
[1] = target: B-Raf V600E (Homo sapiens (Human), UniProt P15056, V600E); experiment: B-Raf V600E kinase biochemical activity assay (AlphaScreen, biotin-MEK1 substrate); details: 100 μM ATP
Method: Assays for biochemical and cell based activity are known in the art, for example, as described in PCT publication WO 2007/002433, the disclosure of which is hereby incorporated by reference as it relates to such assays. For example, the biochemical activity IC50 values are determined with respect to inhibition of B-Raf V600E kinase activity or p-Erk kinase activity, where inhibition of phosphorylation of a peptide substrate is measured as a function of compound concentration. Compounds to be tested are diluted in dimethyl sulfoxide to a concentration of 0.1 mM. These are serially diluted 15 μL into 30 μL of dimethyl sulfoxide seven times in 96 well plates for a total of 8 dilution points, and for each dilution point 1 μL is added to a well of an assay plate. Plates are prepared such that each well in a 384 well plate contains 1 μL of compound in 10 μL volume with 0.1 ng Raf enzyme (i.e. any of B-Raf, c-Raf-1 or B-Raf V600E, Upstate Biotechnology or prepared by methods known to one of skill in the art), 50 mM HEPES, pH 7.0, 50 mM NaCl, 2 mM MgCl2, 1 mM MnCl2, 0.01% Tween-20, 1 mM DTT, and 100 nM biotin-MEK1 as substrate. The reaction is started with addition of 10 μL of 200 μM ATP (i.e. final 100 μM ATP). After incubation of the kinase reaction for 45 minutes at room temperature, 5 μL/well of Stop Solution is added (25 mM Hepes pH 7.5, 100 mM EDTA, 0.01% BSA with donor beads (Streptavidin coated beads, Perkin Elmer), acceptor beads (Protein A coated, Perkin Elmer), and anti phosphor MEK1/2 antibody (CellSignal), each at final concentration 10 μg/mL). The plates are incubated for 3 hours at room temperature and read on Envision reader (Perkin Elmer). Phosphorylation of Mek1 results in binding of the anti-phosphor-MEK1/2antibody and association of the donor and acceptor beads such that signal correlates with kinase activity. The signal vs. compound concentration is used to determine the IC50.

[2] = system: COLO205 colon adenocarcinoma cells (B-Raf V600E mutation); experiment: COLO205 cell growth inhibition (ATPlite); format: cell-based; details: Homo sapiens, COLO 205, 72 h, 3 days
Method: Compounds are assessed in a variety of cell based assays.
On day 1, cells are counted, then centrifuged in a conical tube for 5 minutes at 1000 rpm.
On day 2, compound at a maximum concentration of 5 mM is serially diluted 1:3 (e.g. 10 μL with 30 μL dimethyl sulfoxide) for a total of 8 point titration with DMSO as a control. A 1 μL aliquot of each dilution point and control is added to 249 μL growth media and 50 μL is added to a well containing cells, providing 10 μM compound at the maximum concentration point. The cells are incubated for 3 days at 37° C. in 5% CO2.
ATPlite is added 25 μL to each well, shake for 2 minutes, and the cells are incubated at room temperature for 10 minutes, then luminescence is read on Safire reader. The measured luminescence correlates directly with cell number, such that the reading as a function of compound concentration is used to determine the IC50 value.

Sequence of B-Raf V600E (P15056 whole entry V600E): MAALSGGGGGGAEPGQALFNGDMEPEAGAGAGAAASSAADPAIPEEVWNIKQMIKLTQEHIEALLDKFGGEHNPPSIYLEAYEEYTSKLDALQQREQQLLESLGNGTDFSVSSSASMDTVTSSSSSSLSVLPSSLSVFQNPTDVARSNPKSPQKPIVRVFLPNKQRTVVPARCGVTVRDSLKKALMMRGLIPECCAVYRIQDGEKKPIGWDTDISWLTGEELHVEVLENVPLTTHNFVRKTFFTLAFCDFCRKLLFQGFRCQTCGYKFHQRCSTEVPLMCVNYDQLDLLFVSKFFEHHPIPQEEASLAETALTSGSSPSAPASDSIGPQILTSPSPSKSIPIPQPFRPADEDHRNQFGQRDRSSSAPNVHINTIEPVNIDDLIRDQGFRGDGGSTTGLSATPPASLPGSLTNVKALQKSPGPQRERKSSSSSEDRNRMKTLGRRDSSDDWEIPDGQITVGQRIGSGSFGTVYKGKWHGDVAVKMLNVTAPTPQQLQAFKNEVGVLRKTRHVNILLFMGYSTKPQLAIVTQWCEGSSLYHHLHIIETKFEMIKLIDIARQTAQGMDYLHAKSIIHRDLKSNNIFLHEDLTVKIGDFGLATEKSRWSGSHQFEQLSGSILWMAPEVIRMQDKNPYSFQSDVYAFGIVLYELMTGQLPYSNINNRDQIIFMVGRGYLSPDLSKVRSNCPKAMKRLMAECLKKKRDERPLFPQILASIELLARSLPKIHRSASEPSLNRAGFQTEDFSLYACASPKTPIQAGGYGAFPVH

Structure (SMILES) | IC50 [1] [µM] | IC50 [2] [µM]
O=C(c1c(F)ccc(NS(=O)(=O)N2CCCC2)c1F)c1c[nH]c2ncc(F)c(NCC3CC3)c12 [Compound P-0016, N-[3-[4-(cyclopropylmethylamino)-5-fluoro-1H-pyrrolo[2,3-b]pyridine-3-carbonyl]-2,4-difluoro-phenyl]pyrrolidine-1-sulfonamide] | < 0.1 | < 1
COCCS(=O)(=O)Nc1cccc(C(=O)c2c[nH]c3ncc(-c4cnc(OC)nc4)cc23)c1F [Compound P-0065, N-[2-fluoro-3-[5-(2-methoxypyrimidin-5-yl)-1H-pyrrolo[2,3-b]pyridine-3-carbonyl]phenyl]-2-methoxy-ethanesulfonamide] | < 0.1 | > 1
CC(C)NS(=O)(=O)Nc1cccc(C(=O)c2c[nH]c3ncc(I)cc23)c1F [Compound P-0071, [2-fluoro-3-(isopropylsulfamoylamino)phenyl]-(5-iodo-1H-pyrrolo[2,3-b]pyridin-3-yl)methanone] | > 0.1 | > 1
COc1ncc(-c2cnc3[nH]cc(C(=O)c4cccc(NS(=O)(=O)N(C)CC(C)C)c4F)c3c2)cn1 [Compound P-0072, 3-[2-fluoro-3-[[isobutyl(methyl)sulfamoyl]amino]benzoyl]-5-(2-methoxypyrimidin-5-yl)-1H-pyrrolo[2,3-b]pyridine] | > 0.1 | > 1
COCCN(C)S(=O)(=O)Nc1cccc(C(=O)c2c[nH]c3ncc(-c4cnc(OC)nc4)cc23)c1F [Compound P-0073, 3-[2-fluoro-3-[[2-methoxyethyl(methyl)sulfamoyl]amino]benzoyl]-5-(2-methoxypyrimidin-5-yl)-1H-pyrrolo[2,3-b]pyridine] | > 0.1 | > 1
COc1ncc(-c2cnc3[nH]cc(C(=O)c4cccc(NS(=O)(=O)N5CCCC5C)c4F)c3c2)cn1 (centres unmarked) [Compound P-0074, N-[2-fluoro-3-[5-(2-methoxypyrimidin-5-yl)-1H-pyrrolo[2,3-b]pyridine-3-carbonyl]phenyl]-2-methyl-pyrrolidine-1-sulfonamide] | > 0.1 | > 1
CCN(C)S(=O)(=O)Nc1cccc(C(=O)c2c[nH]c3ncc(-c4ccc(N(C)C)nc4)cc23)c1F [Compound P-0076, 5-[6-(dimethylamino)-3-pyridyl]-3-[3-[[ethyl(methyl)sulfamoyl]amino]-2-fluoro-benzoyl]-1H-pyrrolo[2,3-b]pyridine] | < 0.1 | < 1
CCN(C)S(=O)(=O)Nc1cccc(C(=O)c2c[nH]c3ncc(-c4cnc(NC5CC5)nc4)cc23)c1F [Compound P-0077, 5-[2-(cyclopropylamino)pyrimidin-5-yl]-3-[3-[[ethyl(methyl)sulfamoyl]amino]-2-fluoro-benzoyl]-1H-pyrrolo[2,3-b]pyridine] | < 0.1 | < 1
CCCN(C)S(=O)(=O)Nc1ccc(F)c(C(=O)c2c[nH]c3ncc(-c4cnc(C5CC5)nc4)cc23)c1F [Compound P-0078, 5-(2-cyclopropylpyrimidin-5-yl)-3-[2,6-difluoro-3-[[methyl(propyl)sulfamoyl]amino]benzoyl]-1H-pyrrolo[2,3-b]pyridine] | < 0.1 | > 1
COCCN(C)S(=O)(=O)Nc1cccc(C(=O)c2c[nH]c3ncc(-c4ccc(C5(C#N)CC5)cc4)cc23)c1F [Compound P-0080, 5-[4-(1-cyanocyclopropyl)phenyl]-3-[2-fluoro-3-[[2-methoxyethyl(methyl)sulfamoyl]amino]benzoyl]-1H-pyrrolo[2,3-b]pyridine] | < 0.1 | > 1
COCCN(C)S(=O)(=O)Nc1cccc(C(=O)c2c[nH]c3ncc(-c4cnc(NC5CC5)nc4)cc23)c1F [Compound P-0081, 5-[2-(cyclopropylamino)pyrimidin-5-yl]-3-[2-fluoro-3-[[2-methoxyethyl(methyl)sulfamoyl]amino]benzoyl]-1H-pyrrolo[2,3-b]pyridine] | < 0.1 | < 1
CN(CC1CC1)S(=O)(=O)Nc1cccc(C(=O)c2c[nH]c3ncc(-c4cnc(C5CC5)nc4)cc23)c1F [Compound P-0084, 3-[3-[[cyclopropylmethyl(methyl)sulfamoyl]amino]-2-fluoro-benzoyl]-5-(2-cyclopropylpyrimidin-5-yl)-1H-pyrrolo[2,3-b]pyridine] | < 0.1 | < 1
COCCN(C)S(=O)(=O)Nc1cccc(C(=O)c2c[nH]c3ncc(-c4cnc(C5CC5)nc4)cc23)c1F [Compound P-0085, 5-(2-cyclopropylpyrimidin-5-yl)-3-[2-fluoro-3-[[2-methoxyethyl(methyl)sulfamoyl]amino]benzoyl]-1H-pyrrolo[2,3-b]pyridine] | < 0.1 | > 1
COc1ncc(-c2cnc3[nH]cc(C(=O)c4cccc(NS(=O)(=O)N5CC(F)(F)C5)c4F)c3c2)cn1 [Compound P-0088, 3,3-difluoro-N-[2-fluoro-3-[5-(2-methoxypyrimidin-5-yl)-1H-pyrrolo[2,3-b]pyridine-3-carbonyl]phenyl]azetidine-1-sulfonamide] | < 0.1 | > 1
CN(C)S(=O)(=O)Nc1ccc(F)c(C(=O)c2c[nH]c3ncc(-c4ccc(C5(C#N)CC5)cc4)cc23)c1F [Compound P-0237, 5-[4-(1-cyanocyclopropyl)phenyl]-3-[3-(dimethylsulfamoylamino)-2,6-difluoro-benzoyl]-1H-pyrrolo[2,3-b]pyridine] |  | < 1
CCN(C)S(=O)(=O)Nc1ccc(F)c(C(=O)c2c[nH]c3ncc(-c4ccc(C5(C#N)CC5)cc4)cc23)c1F [Compound P-0239, 5-[4-(1-cyanocyclopropyl)phenyl]-3-[3-[[ethyl(methyl)sulfamoyl]amino]-2,6-difluoro-benzoyl]-1H-pyrrolo[2,3-b]pyridine] |  | < 1
N#CC1(c2ccc(-c3cnc4[nH]cc(C(=O)c5c(F)ccc(NS(=O)(=O)N6CCCC6)c5F)c4c3)cc2)CC1 [Compound P-0248, N-[3-[5-[4-(1-cyanocyclopropyl)phenyl]-1H-pyrrolo[2,3-b]pyridine-3-carbonyl]-2,4-difluoro-phenyl]pyrrolidine-1-sulfonamide] |  | < 1
O=C(c1c(F)ccc(NS(=O)(=O)N2CCCC2)c1F)c1c[nH]c2ncc(-c3ccncc3)cc12 [Compound P-0273, N-[2,4-difluoro-3-[5-(4-pyridyl)-1H-pyrrolo[2,3-b]pyridine-3-carbonyl]phenyl]pyrrolidine-1-sulfonamide] |  | < 1
Nc1nccc(-c2cnc3[nH]cc(C(=O)c4c(F)ccc(NS(=O)(=O)N5CCCC5)c4F)c3c2)n1 [Compound P-0280, N-[3-[5-(2-aminopyrimidin-4-yl)-1H-pyrrolo[2,3-b]pyridine-3-carbonyl]-2,4-difluoro-phenyl]pyrrolidine-1-sulfonamide] |  | < 1
O=C(c1c(F)ccc(NS(=O)(=O)N2CCCC2)c1F)c1c[nH]c2ncc(-c3ccnc(N4CCOCC4)c3)cc12 [Compound P-0284, N-[2,4-difluoro-3-[5-(2-morpholino-4-pyridyl)-1H-pyrrolo[2,3-b]pyridine-3-carbonyl]phenyl]pyrrolidine-1-sulfonamide] |  | < 1
CCN(C)S(=O)(=O)Nc1ccc(F)c(C(=O)c2c[nH]c3ncc(-c4cnc(N(C)C)nc4)cc23)c1F [Compound P-0292, 5-[2-(dimethylamino)pyrimidin-5-yl]-3-[3-[[ethyl(methyl)sulfamoyl]amino]-2,6-difluoro-benzoyl]-1H-pyrrolo[2,3-b]pyridine] |  | < 1
